Test [1] addresses T1, Bh0493, uronate isomerase from Bacillus halodurans (Halalkalibacterium halodurans, UniProt Q9KFI6).
T1 sequence (Q9KFI6 1-427): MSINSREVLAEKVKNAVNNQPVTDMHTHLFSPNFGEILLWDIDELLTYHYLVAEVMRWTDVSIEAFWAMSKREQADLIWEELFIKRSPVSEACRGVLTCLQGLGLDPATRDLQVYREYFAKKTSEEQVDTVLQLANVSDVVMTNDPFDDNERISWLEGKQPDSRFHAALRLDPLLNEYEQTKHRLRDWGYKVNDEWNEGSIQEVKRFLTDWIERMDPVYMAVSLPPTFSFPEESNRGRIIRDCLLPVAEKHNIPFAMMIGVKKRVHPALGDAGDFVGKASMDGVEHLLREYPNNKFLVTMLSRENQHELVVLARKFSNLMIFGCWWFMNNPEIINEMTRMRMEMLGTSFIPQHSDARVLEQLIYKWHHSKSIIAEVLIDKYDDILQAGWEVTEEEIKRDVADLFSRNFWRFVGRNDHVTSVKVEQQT
The test can be described thus: X-ray crystal structure, […] Å. Format: binding. Conditions: Zn2+, active site; 40 mM ligand; pH 8.5 (form 1), pH 6.0 (form 2).

Test [2] has as its target T1, Bh0493, uronate isomerase from Bacillus halodurans. The test can be described thus: X-ray crystal structure, […] Å. Type of test: binding. The conditions noted are these: Zn2+, active site; 40 mM ligand; pH 6.0.
Test [3] has the same target. Nature of the test: inhibition kinetics, slope inhibition constant. Format: biochemical.
For test [4], the target named is T2, uronate isomerase (URI) from E. coli (Escherichia coli, UniProt P0A8G3).
T2 sequence (P0A8G3 1-470): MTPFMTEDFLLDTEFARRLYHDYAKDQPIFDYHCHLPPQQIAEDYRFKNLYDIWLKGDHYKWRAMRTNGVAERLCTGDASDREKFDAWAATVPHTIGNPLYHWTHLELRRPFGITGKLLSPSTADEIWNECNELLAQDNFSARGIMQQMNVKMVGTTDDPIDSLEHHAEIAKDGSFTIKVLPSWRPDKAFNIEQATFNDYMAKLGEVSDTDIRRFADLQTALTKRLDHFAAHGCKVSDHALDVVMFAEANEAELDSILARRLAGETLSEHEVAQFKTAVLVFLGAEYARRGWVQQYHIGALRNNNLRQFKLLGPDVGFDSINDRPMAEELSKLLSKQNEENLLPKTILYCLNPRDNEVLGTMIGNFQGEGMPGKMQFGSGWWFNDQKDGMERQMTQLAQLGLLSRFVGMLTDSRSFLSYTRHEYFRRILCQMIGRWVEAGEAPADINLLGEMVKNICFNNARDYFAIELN
The test can be described thus: inhibition kinetics, slope inhibition constant. Type of test: biochemical.

One may read the Ki as a dissociation constant, usually derived from enzyme kinetics or from competition with a known ligand.

With `O=C(O)[C@@H](O)C(O)[C@H](O)C(=O)O` [III, D-arabinarate], the “X-ray crystal structure, 2.2 Å (two crystal forms)” value in test [1] was “two inhibitors that mimic the proposed cis-enediol(ate) intermediate, D-arabinarate (III) and its hydroxamate derivative (II)”. For the compound `O=C(O)[C@H]1OC(O)[C@H](O)[C@@H](O)[C@@H]1O` (stereo partly drawn) [I, D-glucuronate], the “X-ray crystal structure, 2.1 Å” value in test [2] is on record as “In the complex with D-glucuronate, the substrate is bound in the open chain configuration”. Turning to `O=C(O)[C@H]1OC[C@H](O)[C@@H](O)[C@@H]1O` [IV, 2,6-Anhydro-L-gulonic acid], the figures for the Ki in test [3] and in test [4] were 24 ± 2 µM and 45 ± 4 µM, respectively.

The values above are taken from article PMC2773443 (Biochemistry, 2009).
